Assay results published in patent publication US20260193221A1, “SOLID FORMS COMPRISING (5R,6S)-10,11-DIFLUORO-12-((2-FLUORO-4-IODOPHENYL)AMINO)-5,6-DIHYDROXY-4,5,6,7-TETRAHYDRO-1H-SPIRO[BENZO[B][1,5,4]OXATHIAZECINE-3,1'-CYCLOPROPANE] 2,2-DIOXIDE, AND COMPOSITIONS COMPRISING AND METHODS OF USING THE SAME” (PASITHEA THERAPEUTICS CORP., priority 2024, published 2026).
Converted amounts (≈) assume the structure as drawn. “Also recorded” adds a separate entry of the source. Where two headings read alike, the source gives them in different places. Values belong to the compound of their own block, whether it stands above or below them.

What was measured:
[1] = Solubility, Experiment 2 (target concentration 5 mg/mL); assay type: physicochemical; conditions: for Solubility: 37° C.
Experimental: (§1) Experiment 2: 5 mg of Form A and 5 mg of amorphous form were weighed into an 8 mL glass vial, respectively. 1 mL of solubility medium was added. Obtained suspensions/solutions were stirred at 37° C. at 400 rpm and sampled at 2 hours and at 24 hours. Obtained suspensions/solutions were filtered through a 0.45 μm PVDF membrane filter by centrifugation at 14,000 rpm and at 37° C. Filtrate were analyzed by HPLC and pH meter for solubility and pH value, respectively.

[2] = Mechanic properties (compression, dry grinding, wet granulation simulation); assay type: physicochemical
Experimental: Compression simulation experiments: about 20 mg of Form A was compressed for 5 minutes under 2 MPa, 5 MPa and 10 MPa with a hydraulic press. Potential form change and degree of crystallinity were evaluated by XRPD.
Dry grinding simulation experiments: about 20 mg of Form A was ground manually with a mortar and a pestle for 5 min. Potential form change and degree of crystallinity were evaluated by XRPD.
Wet granulation simulation experiments: water or ethanol was added drop-wisely to about 20 mg of Form A until the sample was wetted sufficiently. Wet sample was ground gently with in a mortar and a pestle for 5 min. Post granulation sample was dried under ambient condition for 10 min. Potential form change and degree of crystallinity were evaluated by XRPD.

[3] = Solubility, Experiment 1 (target concentration 2 mg/mL); assay type: physicochemical; conditions: for XRPD of residual solid / Solubility: 37° C.
Experimental: as §1, with “Experiment 1:” for “Experiment 2:”, “respectively. 2.5” for “respectively. 1”, “respectively. Residual solids (wet cakes) from the 24 hours samples were also characterized by XRPD to determine physical form.” for “respectively.”

Bulk stability = assay type: physicochemical; conditions: 25° C./92.5% RH open, 40° C./75% RH open, 60° C. closed container; 1 week
Experimental: Form A was placed at 25° C./92.5% RH in an open container, at 40° C./75% RH in an open container, and at 60° C. in a closed container for 1 week. Samples after the stress were characterized by XRPD and HPLC and inspected for color change.

Hygroscopicity by DVS = assay type: physicochemical
Experimental: Water sorption and desorption behavior Form A was investigated by DVS at 25° C. with a cycle of 40-0-95-0-40% RH. XRPD was measured after the DVS test to determine form change. […] The DVS test measured 0.4% water uptake from 40% to 80% RH, see FIG. 4.

[4] = Phase 1 clinical trial, safety and tolerability; assay type: in vivo, human
Description: (§2) A Phase 1 Open-Label Study to Assess the Safety, Tolerability, Pharmacokinetics, and Pharmacodynamics of Compound 1 in Patients with MAPK Pathway-Driven Advanced Solid Tumors with a Documented RAS, NF1, or RAF Mutation or Patients Who have Failed BRAF/MEK Inhibition
(§3) The Phase 1 clinical trial is a multi-center, open-label, dose escalation 3+3 study design to evaluate the safety, tolerability, pharmacokinetic (PK), pharmacodynamic (PD), and preliminary efficacy of Compound 1 in patients with MAPK pathway driven advanced solid tumors with a documented RAS, NF or RAF mutation or patients who have failed BRAF/MEK inhibition.
(§4) Patients with histologically or cytologically diagnosed mitogen-activated protein kinase (MAPK) pathway driven advanced solid tumors with all of the following characteristics qualified for enrollment: • i. tumor cannot be surgically resected • ii. patient has failed or is ineligible for standard of care therapy • iii. patient has no available treatment options with known clinical benefit • iv. documented evidence of rat sarcoma virus (RAS), neurofibromatosis type I (NF1), and/or rapidly accelerated fibrosarcoma (RAF) mutations. Patients with RAF mutations must have previously failed v-Raf murine sarcoma viral oncogene homolog B (BRAF)/MEK inhibition.
(§5) Patients in the study were administered Compound 1 by mouth as a single dose, followed by one week observation, then once a day during the study, in 28-day cycles. Participants will continue on daily Compound 1 for up to 2 years, or until: • i. they decide to withdraw from the study, or • ii. they experience unacceptable side effects, or • iii. their disease progresses, or another illness interferes with taking the study drug, or • iv. the sponsors stops the study.
(§6) In this study, Compound 1 was presented in 1 mg, 4 mg, and 10 mg strength capsules, intended for oral administration once daily. Sequential dose escalation is: 2 mg, 4 mg, 8 mg, 15 mg, 22 mg, 30 mg, 37 mg, and 45 mg.

[5] = Phase 1 clinical trial, pharmacokinetics; assay type: in vivo, human; conditions: for AUC0-24 / Cmin / half-life / Cmax: patients; for AUC0-24 / Cmin / Cmax: geometric mean (geometric CV %); for half-life / Cmax: human, plasma, po
Description: as §2, §3, §4, §5, §6

[6] = Acetate buffer (50 mM), pH 4.5, 24 h
[7] = Acetate buffer (50 mM), pH 4.5, 24 h, target concentration 2 mg/mL
[8] = FaSSGF, pH 1.6, 24 h, target concentration 2 mg/mL
[9] = FaSSIF-v1, pH 6.5, 2 h, target concentration 2 mg/mL
[10] = FaSSIF-v1, pH 6.5, 24 h, target concentration 2 mg/mL
[11] = HCl solution, pH 1.2, 24 h, target concentration 2 mg/mL
[12] = Phosphate buffer (50 mM), pH 6.8, 24 h
[13] = Phosphate buffer (50 mM), pH 6.8, 24 h, target concentration 2 mg/mL
[14] = 2 mg, Day 22 (steady state), oral once daily
[15] = 4 mg, Day 22 (steady state), oral once daily

solubility at 24 h ([1]; FeSSIF-v1, pH 5.0, 37 °C, pH 5, fessif, thermodynamic from solid, 24 h): 3000 µg/mL (≈ 5260 µM)
Solubility ([1]; FeSSIF-v1, pH 5.0, 2 h): 2400 µg/mL (≈ 4210 µM)
Crystallinity after compression (XRPD) ([2]; compressed 5 minutes under 2 MPa, 5 MPa and 10 MPa): No obvious decrease in crystallinity
Crystallinity after dry grinding (XRPD) ([2]; ground manually with mortar and pestle for 5 min): Only a slight decrease in crystallinity
Crystallinity after wet granulation (XRPD) ([2]; water or ethanol, ground 5 min, dried 10 min): Only a slight decrease in crystallinity
XRPD of residual solid [3, 6]: Form A
Solubility [3, 7]: 5.1 µg/mL (≈ 8.94 µM)
solubility at 2 h ([3]; FaSSGF, pH 1.6, 37 °C, pH 1.6, fassgf or other biorelevant, thermodynamic from solid, pH 1.6, 2 h, target concentration 2 mg/mL): 12 µg/mL (≈ 21 µM)
XRPD of residual solid ([3]; FaSSGF, pH 1.6, 24 h): Form A
Solubility [3, 8]: 6.3 µg/mL (≈ 11 µM)
Solubility [3, 9]: 270 µg/mL (≈ 473 µM)
XRPD of residual solid ([3]; FaSSIF-v1, pH 6.5, 24 h): Form A
Solubility [3, 10]: 330 µg/mL (≈ 579 µM)
solubility at 2 h ([3]; FeSSIF-v1, pH 5.0, 37 °C, pH 5, fessif, thermodynamic from solid, FeSSIF-v1, pH 5.0, 2 h, target concentration 2 mg/mL): 1800 µg/mL (≈ 3160 µM)
solubility at 24 h ([3]; FeSSIF-v1, pH 5.0, 37 °C, pH 5, fessif, thermodynamic from solid, FeSSIF-v1, pH 5.0, 24 h, target concentration 2 mg/mL): ≥ 2000 µg/mL
solubility at 2 h ([3]; HCl solution, pH 1.2, 37 °C, pH 1.2, simulated gastric fluid, thermodynamic from solid, pH 1.2, 2 h, target concentration 2 mg/mL): 12 µg/mL (≈ 21 µM)
XRPD of residual solid ([3]; HCl solution, pH 1.2, 24 h): Form A
Solubility [3, 11]: 3.7 µg/mL (≈ 6.49 µM)
XRPD of residual solid [3, 12]: Form A
Solubility [3, 13]: 5.1 µg/mL (≈ 8.94 µM)
XRPD of residual solid ([3]; Water, 24 h): Form A
solubility at 2 h ([3]; acetate buffer (50 mM), pH 4.5, 37 °C, pH 4.5, aqueous buffer, thermodynamic from solid, pH 4.5, 2 h, target concentration 2 mg/mL): 12 µg/mL (≈ 21 µM)
solubility at 2 h ([3]; phosphate buffer (50 mM), pH 6.8, 37 °C, pH 6.8, aqueous buffer, thermodynamic from solid, pH 6.8, 2 h, target concentration 2 mg/mL): 13 µg/mL (≈ 22.8 µM)
solubility at 2 h ([3]; water, 37 °C, thermodynamic from solid, 2 h, target concentration 2 mg/mL): 19 µg/mL (≈ 33.3 µM)
Color change after stress (Bulk stability): no change of color was observed
Physical form after stress (XRPD) (Bulk stability): Form A was confirmed
Water uptake (DVS) (Hygroscopicity by DVS; 25° C., from 40% to 80% RH): 0.4%
Hygroscopicity (Hygroscopicity by DVS; DVS at 25° C., cycle 40-0-95-0-40% RH): slightly hygroscopic
XRPD after the DVS test (form change) (Hygroscopicity by DVS; after DVS cycle 40-0-95-0-40% RH): no form change
SMILES: O=S1(=O)Nc2c(cc(F)c(F)c2Nc2ccc(I)cc2F)OC[C@H](O)[C@H](O)CC12CC2 [Form A, (5R,6S)-10,11-difluoro-12-((2-fluoro-4-iodophenyl)amino)-5,6-dihydroxy-4,5,6,7-tetrahydro-1H-spiro[benzo[b][1,5,4]oxathiazecine-3,1′-cyclopropane]2,2-dioxide]

Solubility ([1]; FeSSIF-v1, pH 5.0, 2 h): >5000 µg/mL
Solubility ([1]; FeSSIF-v1, pH 5.0, 24 h): >5000 µg/mL
Solubility ([3]; Acetate buffer (50 mM), pH 4.5, 2 h, target concentration 2 mg/mL): 17 µg/mL (≈ 29.8 µM)
XRPD of residual solid [3, 6]: Amorphous
Solubility [3, 7]: 17 µg/mL (≈ 29.8 µM)
Solubility ([3]; FaSSGF, pH 1.6, 2 h, target concentration 2 mg/mL): 16 µg/mL (≈ 28.1 µM)
XRPD of residual solid ([3]; FaSSGF, pH 1.6, 24 h): Amorphous
Solubility [3, 8]: 14 µg/mL (≈ 24.5 µM)
Solubility [3, 9]: 1100 µg/mL (≈ 1930 µM)
XRPD of residual solid ([3]; FaSSIF-v1, pH 6.5, 24 h): Amorphous
Solubility [3, 10]: 1200 µg/mL (≈ 2100 µM)
Solubility ([3]; FeSSIF-v1, pH 5.0, 2 h, target concentration 2 mg/mL): >2000 µg/mL
Solubility ([3]; FeSSIF-v1, pH 5.0, 24 h, target concentration 2 mg/mL): >2000 µg/mL
Solubility ([3]; HCl solution, pH 1.2, 2 h, target concentration 2 mg/mL): 14 µg/mL (≈ 24.5 µM)
XRPD of residual solid ([3]; HCl solution, pH 1.2, 24 h): Form A
Solubility [3, 11]: 13 µg/mL (≈ 22.8 µM)
Solubility ([3]; Phosphate buffer (50 mM), pH 6.8, 2 h, target concentration 2 mg/mL): 16 µg/mL (≈ 28.1 µM)
XRPD of residual solid [3, 12]: Amorphous
Solubility [3, 13]: 16 µg/mL (≈ 28.1 µM)
Solubility ([3]; Water, 2 h, target concentration 2 mg/mL): 38 µg/mL (≈ 66.6 µM)
XRPD of residual solid ([3]; Water, 24 h): Amorphous
Solubility ([3]; Water, 24 h, target concentration 2 mg/mL): 34 µg/mL (≈ 59.6 µM)
SMILES: O=S1(=O)Nc2c(cc(F)c(F)c2Nc2ccc(I)cc2F)OC[C@H](O)[C@H](O)CC12CC2 [Amorphous form, (5R,6S)-10,11-difluoro-12-((2-fluoro-4-iodophenyl)amino)-5,6-dihydroxy-4,5,6,7-tetrahydro-1H-spiro[benzo[b][1,5,4]oxathiazecine-3,1′-cyclopropane]2,2-dioxide]

Dose dependence of plasma exposure ([5]; 2 mg and 4 mg cohorts): linear PK was observed
AUC0-24 ([5]; 2 mg, Day 1, oral): 86.3 (89.2) ng*h/mIL
AUC0-24 [5, 14]: 354 (95.2) ng*h/mIL
Cmin [5, 14]: 10.2 (119.4) ng/mL
AUC0-24 ([5]; 4 mg, Day 1, oral): 100 (97.1) ng*h/mIL
AUC0-24 [5, 15]: 1,390 (12.8) ng*h/mIL
Cmin [5, 15]: 51.5 (20.8) ng/mL
time at which drug levels peaked ([5]; at steady-state, 2 mg and 4 mg dose groups): about 5 hours
half-life ([5]; 2 mg and 4 mg cohorts, oral, read-out: half-life (converted)): ~70 h
half-life ([5]; 2 mg and 4 mg cohorts, oral, read-out: mean elimination half-life (converted)): 67.9 h
Cmax ([5]; 2 mg, Day 1, oral): 4.91 ng/mL
Cmax [5, 14]: 16.2 ng/mL
Cmax ([5]; 4 mg, Day 1, oral): 6.36 ng/mL
Cmax [5, 15]: 61.3 ng/mL
Cmax/Cmin ratio ([5]; plasma concentration at steady state): 1.2
SMILES: O=S1(=O)Nc2c(cc(F)c(F)c2Nc2ccc(I)cc2F)OC[C@H](O)[C@H](O)CC12CC2 [Compound 1, (5R,6S)-10,11-difluoro-12-((2-fluoro-4-iodophenyl)amino)-5,6-dihydroxy-4,5,6,7-tetrahydro-1H-spiro[benzo[b][1,5,4]oxathiazecine-3,1′-cyclopropane]2,2-dioxide]
Rash or skin, gastrointestinal (GI), ocular toxicity ([4]; 2 and 4 mg dose levels): without showing adverse side effects such as rash or GI toxicity; also recorded: no rash or skin toxicity, gastrointestinal (GI) toxicity, or ocular toxicity have been observed
Drug-related serious adverse events (SAE) ([4]; any dose arm): no drug-related serious adverse events
Drug-related dose interruptions, reductions or discontinuations ([4]; first 2 dosing cohorts (n=6)): no drug-related dose interruptions, reductions or discontinuations
Tolerability ([4]; first 2 dosing cohorts (n=6), 2 mg and 4 mg): well-tolerated
